ChEMBL document CHEMBL3638839, “Azetidine derivatives” (2015)

Target: T1, Fatty-acid amide hydrolase 1 (Homo sapiens, UniProt O00519)
T1 sequence (O00519 whole entry): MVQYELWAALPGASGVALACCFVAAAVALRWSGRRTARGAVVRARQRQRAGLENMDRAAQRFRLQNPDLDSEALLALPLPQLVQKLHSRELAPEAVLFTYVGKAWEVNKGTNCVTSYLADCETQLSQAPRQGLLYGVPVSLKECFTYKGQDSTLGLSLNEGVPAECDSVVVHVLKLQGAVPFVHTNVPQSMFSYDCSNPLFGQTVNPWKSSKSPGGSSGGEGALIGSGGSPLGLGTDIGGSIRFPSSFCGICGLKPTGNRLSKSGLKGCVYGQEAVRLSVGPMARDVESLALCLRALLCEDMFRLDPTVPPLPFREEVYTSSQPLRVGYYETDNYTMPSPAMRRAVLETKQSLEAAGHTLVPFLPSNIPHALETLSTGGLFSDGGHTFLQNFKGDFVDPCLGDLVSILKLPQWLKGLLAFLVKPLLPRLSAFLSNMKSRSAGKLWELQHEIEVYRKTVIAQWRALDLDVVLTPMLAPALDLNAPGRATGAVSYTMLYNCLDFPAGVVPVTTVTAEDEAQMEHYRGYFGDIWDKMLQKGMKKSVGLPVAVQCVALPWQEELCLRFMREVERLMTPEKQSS
Assay: Inhibition Assay: Human FAAH 1 activity was determined by measuring the liberation of the highly fluorescent 7-amino, 4-methyl Coumarin (AMC) generated during hydrolysis of the substrate arachidonoyl 7-amino, 4-methyl coumarin amide (AAMCA) by FAAH. Inhibition of human FAAH 1 activity was determined as a percentage reduction of the fluorescence determined in the absence of compound.The assay was carried out in black-walled, clear bottom, 384-well plates. 27.5 ul of human FAAH 1 protein (in FAAH assay buffer: 50 mM Hepes, 0.01% Triton X-100, 1 mM EDTA, 0.5 mg/ml BSA (fatty-acid-free), pH 8.2) was pre-incubated, at 10 nM, with increasing concentrations of compounds (2.5 ul in 100% DMSO) for 1 hour at room temperature. 2.5 ul of DMSO was added for total controls (100% FAAH activity) and 2.5 ul of URB-597, a known inhibitor of FAAH activity, (at a final, saturating, concentration of 10 uM) was used for non-specific controls (0 FAAH activity).

COc1ccccc1-c1ccc(OC2CN(C(=O)Nc3cccnn3)C2)nc1
IC50: 0.012 µM
